What all share (details): 1 mM NHDC
Test [1] addresses T1, human TAS1R3 and rat Tas1r2 (Homo sapiens, UniProt Q7RTX0).
T1 construct: expressed in transfected cells; host or cells: HEK293T cells stably expressing G16Gust44
The experiment in a line: Calcium response, interspecies subunit combination. Format: cell-based. From the text: (§1) In order to elucidate the putative binding site for NHDC, we cotransfected mixtures of plasmid DNAs for the rat and human TAS1R2 and TAS1R3 receptor subunits in HEK293T cells stably expressing the chimeric G-protein G16Gust44 and measured cellular calcium responses by fluorometry following bath application of various sweet tasting compounds.
(§2) Figure 1 Chemical structure and calcium responses elicited by neohesperidin dihydrochalcone. (A) Structure of neohesperidin dihydrochalcone. Numbers denote carbon atom positions. […]
(§3) The cDNAs for TAS1Rs tagged at the C-terminus with the herpes simplex virus glycoprotein D (HSV) were transiently transfected into HEK293T cells stably expressing the chimeric G-protein subunit G16Gust44 [44] using Lipofectamine 2000 (Invitrogen, Carlsbad, CA) according to the manufacturer's protocol. […] We monitored calcium mobilization following receptor stimulation with sweet tastants by an automated fluorometric imaging plate reader (FLIPR, Molecular Devices, Sunnyvale, CA). […] The obtained calcium signals were corrected for the response of mock transfected cells and normalized to the fluorescence of cells prior to the application of the stimulus using ΔF/F = (F-F0)/F0. Concentration-response curves and EC50 and IC50 values were calculated in SigmaPlot by nonlinear regression using the function f = ((a-d)/(1+(x/EC50)^nH)+d) and f = (a-b)/[1+(x/IC50)^nH]+b, respectively.

In test [2] the test system is receptors that contain the entire rat Tas1r3 or its heptahelical domain. The experiment in a line: Calcium response, receptors and chimeras with rat Tas1r3 heptahelical domain. The class given is cell-based, human.
Text: In order to elucidate the putative binding site for NHDC, we cotransfected mixtures of plasmid DNAs for the rat and human TAS1R2 and TAS1R3 receptor subunits in HEK293T cells stably expressing the chimeric G-protein G16Gust44 and measured cellular calcium responses by fluorometry following bath application of various sweet tasting compounds. […].
Figure 1 Chemical structure and calcium responses elicited by neohesperidin dihydrochalcone. (A) Structure of neohesperidin dihydrochalcone. Numbers denote carbon atom positions. (B) Representative calcium traces elicited upon stimulation with different concentrations of neohesperidin dihydrochalcone (NHDC) in HEK293T-G16Gust44 cells cotransfected with DNA for hTAS1R2/hTAS1R3. […]
as §3, with “Concentration-response curves and EC50 and IC50 values were calculated in SigmaPlot by nonlinear regression using the function f = ((a-d)/(1+(x/EC50)^nH)+d) and f = (a-b)/[1+(x/IC50)^nH]+b, respectively.” left out

The target in test [3] is T2, rat Tas1r3 and human TAS1R2 (opposite combination) (Rattus norvegicus, UniProt Q923K1).
T2 construct: expressed in transfected cells; host or cells: HEK293T cells stably expressing G16Gust44
T2 sequence (Q923K1 21-858): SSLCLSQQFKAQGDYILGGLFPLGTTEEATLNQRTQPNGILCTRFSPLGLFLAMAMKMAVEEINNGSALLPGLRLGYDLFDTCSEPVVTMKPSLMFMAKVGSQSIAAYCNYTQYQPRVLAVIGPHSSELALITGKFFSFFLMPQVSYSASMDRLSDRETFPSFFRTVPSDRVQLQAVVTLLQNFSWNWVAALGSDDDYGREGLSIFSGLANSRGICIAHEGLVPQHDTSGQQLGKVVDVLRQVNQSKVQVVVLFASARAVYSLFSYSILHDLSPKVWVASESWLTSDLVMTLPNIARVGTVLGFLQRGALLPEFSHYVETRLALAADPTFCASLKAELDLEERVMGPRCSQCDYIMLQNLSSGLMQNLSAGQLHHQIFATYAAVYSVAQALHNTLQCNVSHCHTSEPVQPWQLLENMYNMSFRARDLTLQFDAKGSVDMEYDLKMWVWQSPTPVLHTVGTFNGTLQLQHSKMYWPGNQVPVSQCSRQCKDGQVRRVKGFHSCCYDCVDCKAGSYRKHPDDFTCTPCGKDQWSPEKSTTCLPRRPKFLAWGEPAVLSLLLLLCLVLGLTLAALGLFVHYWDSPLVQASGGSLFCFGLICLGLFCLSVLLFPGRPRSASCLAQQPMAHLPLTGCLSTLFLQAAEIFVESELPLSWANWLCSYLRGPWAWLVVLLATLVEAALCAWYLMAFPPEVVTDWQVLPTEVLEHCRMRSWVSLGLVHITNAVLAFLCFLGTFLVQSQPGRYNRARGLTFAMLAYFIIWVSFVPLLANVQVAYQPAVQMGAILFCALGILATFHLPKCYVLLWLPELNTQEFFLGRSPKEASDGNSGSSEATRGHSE
T2 sequence (Q8TE23 20-839 partner): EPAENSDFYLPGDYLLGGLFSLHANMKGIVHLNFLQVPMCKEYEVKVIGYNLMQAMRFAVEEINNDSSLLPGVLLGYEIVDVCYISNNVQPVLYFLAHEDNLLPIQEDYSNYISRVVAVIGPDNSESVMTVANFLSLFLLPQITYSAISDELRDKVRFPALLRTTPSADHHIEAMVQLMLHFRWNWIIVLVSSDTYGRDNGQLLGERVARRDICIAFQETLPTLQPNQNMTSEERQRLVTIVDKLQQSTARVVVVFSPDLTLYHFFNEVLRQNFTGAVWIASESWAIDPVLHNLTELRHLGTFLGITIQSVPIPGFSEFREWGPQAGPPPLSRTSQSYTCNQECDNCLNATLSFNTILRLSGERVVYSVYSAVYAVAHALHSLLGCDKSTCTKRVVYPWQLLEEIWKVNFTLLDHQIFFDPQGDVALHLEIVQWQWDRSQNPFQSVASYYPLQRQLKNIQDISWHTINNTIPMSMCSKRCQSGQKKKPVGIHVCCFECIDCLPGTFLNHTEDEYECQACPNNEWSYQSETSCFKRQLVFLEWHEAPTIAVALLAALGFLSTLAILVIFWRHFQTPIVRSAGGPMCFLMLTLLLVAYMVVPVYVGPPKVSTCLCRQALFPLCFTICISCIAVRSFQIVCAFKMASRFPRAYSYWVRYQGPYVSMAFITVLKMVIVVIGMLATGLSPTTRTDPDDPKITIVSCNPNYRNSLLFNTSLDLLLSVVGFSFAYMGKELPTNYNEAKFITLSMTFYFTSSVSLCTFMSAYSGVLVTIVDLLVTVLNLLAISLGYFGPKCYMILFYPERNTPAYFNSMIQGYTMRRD
The test is described as follows: Calcium response, opposite interspecies subunit combination. The class given is cell-based.
Text: as §1, §2, §3

T1 sequence (Q7RTX0 21-852): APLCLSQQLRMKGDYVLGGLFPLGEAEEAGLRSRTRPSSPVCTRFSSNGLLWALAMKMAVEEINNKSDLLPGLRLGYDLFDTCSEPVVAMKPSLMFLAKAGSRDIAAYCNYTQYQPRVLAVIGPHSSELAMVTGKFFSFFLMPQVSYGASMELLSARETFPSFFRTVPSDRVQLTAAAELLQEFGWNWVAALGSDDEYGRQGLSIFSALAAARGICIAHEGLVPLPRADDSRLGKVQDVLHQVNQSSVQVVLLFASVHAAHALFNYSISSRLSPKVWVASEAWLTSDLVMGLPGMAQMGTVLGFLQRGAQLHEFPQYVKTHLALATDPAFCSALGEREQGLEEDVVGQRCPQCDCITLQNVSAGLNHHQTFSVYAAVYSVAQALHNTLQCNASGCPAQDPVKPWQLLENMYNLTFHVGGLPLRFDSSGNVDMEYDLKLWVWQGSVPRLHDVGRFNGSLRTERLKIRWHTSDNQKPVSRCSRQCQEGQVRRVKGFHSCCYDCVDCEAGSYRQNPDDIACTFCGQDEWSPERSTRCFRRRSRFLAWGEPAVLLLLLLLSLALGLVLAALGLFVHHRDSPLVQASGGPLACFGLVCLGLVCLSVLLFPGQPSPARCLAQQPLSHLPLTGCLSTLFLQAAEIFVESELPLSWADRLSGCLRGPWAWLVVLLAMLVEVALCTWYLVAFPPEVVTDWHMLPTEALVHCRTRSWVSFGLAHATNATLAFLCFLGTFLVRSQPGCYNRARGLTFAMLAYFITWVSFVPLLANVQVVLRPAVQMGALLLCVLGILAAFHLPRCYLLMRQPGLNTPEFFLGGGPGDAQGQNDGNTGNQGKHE
T1 sequence (Q9Z0R7 20-843 partner): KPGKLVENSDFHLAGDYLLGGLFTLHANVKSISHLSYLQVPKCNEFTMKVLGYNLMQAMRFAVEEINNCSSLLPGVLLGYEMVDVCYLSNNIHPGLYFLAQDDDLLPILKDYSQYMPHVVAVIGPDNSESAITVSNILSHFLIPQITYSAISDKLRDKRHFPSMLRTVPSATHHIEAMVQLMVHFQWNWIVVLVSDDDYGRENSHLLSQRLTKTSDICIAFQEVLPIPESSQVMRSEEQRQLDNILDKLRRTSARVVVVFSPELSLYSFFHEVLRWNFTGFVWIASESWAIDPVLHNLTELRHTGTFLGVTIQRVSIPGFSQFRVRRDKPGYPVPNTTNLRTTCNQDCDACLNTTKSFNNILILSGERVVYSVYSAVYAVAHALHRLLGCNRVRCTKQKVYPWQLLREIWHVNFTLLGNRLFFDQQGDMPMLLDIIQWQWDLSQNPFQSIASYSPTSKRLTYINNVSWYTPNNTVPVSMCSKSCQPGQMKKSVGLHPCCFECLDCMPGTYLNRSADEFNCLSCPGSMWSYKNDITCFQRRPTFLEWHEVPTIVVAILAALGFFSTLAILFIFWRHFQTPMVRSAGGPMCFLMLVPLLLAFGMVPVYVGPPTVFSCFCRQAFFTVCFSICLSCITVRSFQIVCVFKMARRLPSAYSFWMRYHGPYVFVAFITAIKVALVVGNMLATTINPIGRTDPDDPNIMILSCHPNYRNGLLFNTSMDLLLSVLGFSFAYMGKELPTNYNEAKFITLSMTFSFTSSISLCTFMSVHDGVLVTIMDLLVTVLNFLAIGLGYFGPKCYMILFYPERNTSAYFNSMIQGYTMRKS

On to `COc1ccc(CCC(=O)c2c(O)cc(O[C@@H]3O[C@H](CO)[C@@H](O)[C@H](O)[C@H]3O[C@@H]3O[C@@H](C)[C@H](O)[C@@H](O)[C@H]3O)cc2O)cc1O` [NHDC, neohesperidin dihydrochalcone], for which the calcium response result in test [1] is “elicited calcium responses”; in test [2], “did not respond to NHDC”; in test [3], “did not”.
